# Test results as given in a flash point compilation (Sun et al. 2020).
row,flash point,SMILES
1,71 °C,CCC1CCCCCC1=O (stereo unspecified) [2-ethylcycloheptanone]
2,-2 °C,CCc1ccco1 [2-ethylfuran]
3,21 °C,CCc1cccs1 [2-ethylthiophene]
4,39 °C,CCCCCC(C)=O [2-heptanone]
5,46 °C,CCCCC(C)O (stereo unspecified) [2-hexanol]
6,45 °C,CCCC(C)I (stereo unspecified) [2-iodopentane]
7,43 °C,CC(C)OCCO [2-isopropoxyethanol]
8,-29 °C,CCC(C)OC (stereo unspecified) [2-methoxybutane]
9,19 °C,CCC(C)CS (stereo unspecified) [2-methyl-1-butanethiol]
10,43 °C,CCC(C)CO (stereo unspecified) [2-methyl-1-butanol]
11,-47 °C,C=C(C)CC [2-methyl-1-butene]
12,-27 °C,C=C(C)CCC [2-methyl-1-pentene]
13,28 °C,CC(C)CO [2-methyl-1-propanol]
14,-45 °C,CC=C(C)C [2-methyl-2-butene]
15,20 °C,CCCC(C)(C)S [2-methyl-2-pentanethiol]
16,46 °C,CCC(O)C(C)C (stereo unspecified) [2-methyl-3-pentanol]
17,68 °C,CCCCCCCC(C)=O [2-nonanone]
18,78 °C,CCCCCC1CCCC1=O (stereo unspecified) [2-pentylcyclopentanone]
19,59 °C,CCC(C)(C)c1ccccc1 [2-phenyl-2-methylbutane]
20,15 °C,CCCc1ccco1 [2-propylfuran]
21,93 °C,CCCc1ccccc1O [2-propylphenol]
22,107 °C,CCC(C)c1ccccc1O (stereo unspecified) [2-sec-butylphenol]
23,89 °C,CCCCCCCCCC(C)=O [2-undecanone]
24,-34 °C,"C#CC(C)(C)C [3,3-dimethyl-1-butyne]"
25,88 °C,"CC(C)(C)CC(=O)O [3,3-dimethylbutanoicacid]"

row,flash point,SMILES
1,-19 °C,"CCC(C)(C)CC [3,3-dimethylpentane]"
2,50 °C,Cc1cccc(Cl)c1 [3-chlorotoluene]
3,-17 °C,C=CC(CC)CC [3-ethyl-1-pentene]
4,85 °C,CCc1cccc(N)c1 [3-ethylaniline]
5,46 °C,CCC1CCC(=O)C1 (stereo unspecified) [3-ethylcyclopentanone]
6,-12 °C,CCC(CC)CC [3-ethylpentane]
7,5 °C,CCC#CCCC [3-heptyne]
8,30 °C,CCCC(S)CC (stereo unspecified) [3-hexanethiol]
9,45 °C,CCCC(O)CC (stereo unspecified) [3-hexanol]
10,23 °C,CCCC(=O)CC [3-hexanone]
11,43 °C,CC(C)CCO [3-methyl-1-butanol]
12,58 °C,CCC(C)CCO (stereo unspecified) [3-methyl-1-pentanol]
13,-1 °C,CC(=O)C(C)C [3-methyl-2-butanone]
14,41 °C,CCC(C)C(C)O (stereo unspecified) [3-methyl-2-pentanol]
15,12 °C,CCC(C)C(C)=O (stereo unspecified) [3-methyl-2-pentanone]
16,52 °C,COc1cccc(C)c1 [3-methylanisole]
17,-3 °C,CC1C=CCCC1 (stereo unspecified) [3-methylcyclohexene]
18,34 °C,CC1CCC(=O)C1 (stereo unspecified) [3-methylcyclopentanone]
19,-22 °C,Cc1ccoc1 [3-methylfuran]
20,-32 °C,CCC(C)CC [3-methylpentane]
21,63 °C,CCCCCCC(=O)CC [3-nonanone]
22,51 °C,CCCCCC(=O)CC [3-octanone]
23,2 °C,CCC(N)CC [3-pentanamine]
24,33 °C,CCC(O)CC [3-pentanol]
25,7 °C,CCC(=O)CC [3-pentanone]

row,flash point,SMILES
1,36 °C,Cc1cccnc1 [3-picoline]
2,101 °C,CC(C)(C)c1cccc(N)c1 [3-tert-butylaniline]
3,64 °C,CC(C)(C)C1CCC(=O)C1 (stereo unspecified) [3-tert-butylcyclopentanone]
4,-10 °C,"CC#CC(C)(C)C [4,4-dimethyl-2-pentyne]"
5,102 °C,CCCCc1ccc(N)cc1 [4-butylaniline]
6,46 °C,Cc1ccc(Cl)cc1 [4-chlorotoluene]
7,58 °C,"CCc1ccc(C)c(C)c1 [4-ethyl-1,2-dimethylbenzene]"
8,63 °C,CCC1CCC(=O)CC1 [4-ethylcyclohexanone]
9,12 °C,Cc1ccc(F)cc1 [4-fluorotoluene]
10,90 °C,Cc1ccc(I)cc1 [4-iodotoluene]
11,65 °C,CC(C)C1CCC(=O)CC1 [4-isopropylcyclohexanone]
12,-32 °C,C=CCC(C)C [4-methyl-1-pentene]
13,41 °C,CC(C)CC(C)O (stereo unspecified) [4-methyl-2-pentanol]
14,53 °C,COc1ccc(C)cc1 [4-methylanisole]
15,-1 °C,CC1CC=CCC1 (stereo unspecified) [4-methylcyclohexene]
16,96 °C,CC=Cc1ccc(OC)cc1 [4-propenylanisole]
17,103 °C,CCCc1ccc(N)cc1 [4-propylaniline]
18,82 °C,CCCc1ccc(OC)cc1 [4-propylanisole]
19,106 °C,CCCc1ccc(O)cc1 [4-propylphenol]
20,108 °C,CCC(C)c1ccc(N)cc1 (stereo unspecified) [4-sec-butylaniline]
21,102 °C,CC(C)(C)c1ccc(N)cc1 [4-tert-butylaniline]
22,29 °C,CC=C1CC2C=CC1C2 (stereo unspecified) [5-ethylidene-2-norbornene]
23,-7 °C,C#CCCC(C)C [5-methyl-1-hexyne]
24,36 °C,CC(=O)CCC(C)C [5-methyl-2-hexanone]
25,71 °C,CC1CCCC(=O)CCC1 [5-methylcyclooctanone]

# Further lines, the molecule ahead of its results:
row,SMILES,flash point
1,CCCCC(C=O)CC (stereo unspecified) [2-ethylhexanal],46 °C
2,C=CC(=O)OCC(CC)CCCC (stereo unspecified) [2-ethylhexylacrylate],86 °C
3,CC(C)COCCO [2-isobutoxyethanol],51 °C
4,OCCS [2-mercaptoethanol],68 °C
5,CCC(C)(C)O [2-methyl-2-butanol],21 °C
6,CCCCC=C(C)C [2-methyl-2-heptene],9 °C
7,CCCCCCCCC(C)C [2-methyldecane],50 °C
8,CCCCCCCCCCC(C)C [2-methyldodecane],71 °C
9,CCCCC(C)C(=O)O (stereo unspecified) [2-methylhexanoicacid],105 °C
10,CCCCCCC(C)C [2-methyloctane],24 °C
11,CCCCCCCCCC(C)C [2-methylundecane],61 °C
12,CC(C)[N+](=O)[O-] [2-nitropropane],28 °C
13,CCCCCCC(C)O (stereo unspecified) [2-octanol],72 °C
14,"CCC(C)(C)C(C)(C)CC [3,3,4,4-tetramethylhexane]",31 °C
15,"CC1(C)CC(=O)CC(C)(C)C1 [3,3,5,5-tetramethylcyclohexanone]",73 °C
16,"CCC(C)CC(C)(C)CC (stereo unspecified) [3,3,5-trimethylheptane]",31 °C
17,"CCC(CC)(CC)CC [3,3-diethylpentane]",21 °C
18,"CCCC(C)(C)CC [3,3-dimethylhexane]",-1 °C
19,"CCCCCC(C)(C)CC [3,3-dimethyloctane]",41 °C
20,"CCC(C)C(C)C(C)CC (stereo unspecified) [3,4,5-trimethylheptane]",31 °C
21,"CCC(C)C(C)CC (stereo unspecified) [3,4-dimethylhexane]",6 °C
22,"CCC(C)CC(C)CC (stereo unspecified) [3,5-dimethylheptane]",15 °C
23,"CCCC(C)CC(C)CC (stereo unspecified) [3,5-dimethyloctane]",41 °C
24,C=CCC#N [3-butenenitrile],21 °C
25,SCCCCl [3-chloro-1-propanethiol],43 °C
26,CCCCCCCC(O)CC (stereo unspecified) [3-decanol],99 °C

row,SMILES,flash point
1,CCC#CCCCCCC [3-decyne],52 °C
2,C=CC(CC)CCC (stereo unspecified) [3-ethyl-1-hexene],1 °C
3,"CCCC(CC)C(C)(C)C (stereo unspecified) [3-ethyl-2,2-dimethylhexane]",38 °C
4,"CCC(C)(C(C)C)C(C)C [3-ethyl-2,3,4-trimethylpentane]",31 °C
5,"CCC(C)(CC)C(C)C [3-ethyl-2,3-dimethylpentane]",15 °C
6,CCC(C)(CC)CC [3-ethyl-3-methylpentane],3 °C
7,CCC(S)(CC)CC [3-ethyl-3-pentanethiol],34 °C
8,CCC(C)C(CC)CC (stereo unspecified) [3-ethyl-4-methylhexane],15 °C
9,CCCCC(O)CC (stereo unspecified) [3-heptanol],55 °C
10,CC(C)CC#N [3-methylbutanenitrile],28 °C
11,CCCCCCC(C)CC (stereo unspecified) [3-methylnonane],41 °C
12,CCCCCC(C)CC (stereo unspecified) [3-methyloctane],24 °C
13,"CCCC(C)(C)CCC [4,4-dimethylheptane]",15 °C
14,CCCC(CC)C(C)CC (stereo unspecified) [4-ethyl-3-methylheptane],41 °C
15,CCCCC(CC)CCC (stereo unspecified) [4-ethyloctane],41 °C
16,C=Cc1ccc(F)cc1 [4-fluorostyrene],35 °C
17,CCCC(C)CCC [4-methylheptane],5 °C
18,CCCCC(=O)CCC [4-octanone],45 °C
19,CCCC#CCCC [4-octyne],18 °C
20,C=CCCCO [4-penten-1-ol],43 °C
21,CCCC(CCC)CCC [4-propylheptane],35 °C
22,CCCC#CCCCCCC [4-undecyne],66 °C
23,C=CC1CC=CCC1 (stereo unspecified) [4-vinyl-1-cyclohexene],16 °C
24,C=CCCCCO [5-hexen-1-ol],47 °C
25,CCCCC#CCCCCC [5-undecyne],66 °C
